From patent publication US8436154B2, “Crystallizing method of erythromycin” (Sunshine Lake Pharma Co., Ltd., priority 2008, dated 2013)

Assay: microbiological titre of erythromycin crystals
Type: cell-based
Conditions: dried erythromycin crystals recrystallized from dichloromethane-containing solvent

Substance | microbiological titre [μ/mg]
erythromycin [Example 1] | 948
erythromycin [Example 2] | 955
erythromycin [Example 3] | 941
erythromycin [Example 4] | 946
erythromycin [Example 5] | 943

Assay: not given
Conditions: erythromycin crystals of CN1513864A, recrystallized from acetone and water; cited from earlier work

Substance | microbiological titre
erythromycin [erythromycin crystals] | less than 930 μ/mg
